Values after ≈ are worked out from the molar mass of the structure shown. Active and inactive are the calls of the source. The calls are words filed in the database; no cut-off is given here.
Key:
[1] = target: T1, Phosphatidylinositol 4,5-bisphosphate 3-kinase catalytic subunit delta isoform (Homo sapiens, UniProt O00329); assay: Inhibition of recombinant human PI3Kdelta using l-a-phosphatidylinositol sodium salt and l-a-phosphatidyl-L-serine as substrate incubated for 60 mins in presence of ATP by ADP-glo kinase assay
T1 sequence (O00329 whole entry): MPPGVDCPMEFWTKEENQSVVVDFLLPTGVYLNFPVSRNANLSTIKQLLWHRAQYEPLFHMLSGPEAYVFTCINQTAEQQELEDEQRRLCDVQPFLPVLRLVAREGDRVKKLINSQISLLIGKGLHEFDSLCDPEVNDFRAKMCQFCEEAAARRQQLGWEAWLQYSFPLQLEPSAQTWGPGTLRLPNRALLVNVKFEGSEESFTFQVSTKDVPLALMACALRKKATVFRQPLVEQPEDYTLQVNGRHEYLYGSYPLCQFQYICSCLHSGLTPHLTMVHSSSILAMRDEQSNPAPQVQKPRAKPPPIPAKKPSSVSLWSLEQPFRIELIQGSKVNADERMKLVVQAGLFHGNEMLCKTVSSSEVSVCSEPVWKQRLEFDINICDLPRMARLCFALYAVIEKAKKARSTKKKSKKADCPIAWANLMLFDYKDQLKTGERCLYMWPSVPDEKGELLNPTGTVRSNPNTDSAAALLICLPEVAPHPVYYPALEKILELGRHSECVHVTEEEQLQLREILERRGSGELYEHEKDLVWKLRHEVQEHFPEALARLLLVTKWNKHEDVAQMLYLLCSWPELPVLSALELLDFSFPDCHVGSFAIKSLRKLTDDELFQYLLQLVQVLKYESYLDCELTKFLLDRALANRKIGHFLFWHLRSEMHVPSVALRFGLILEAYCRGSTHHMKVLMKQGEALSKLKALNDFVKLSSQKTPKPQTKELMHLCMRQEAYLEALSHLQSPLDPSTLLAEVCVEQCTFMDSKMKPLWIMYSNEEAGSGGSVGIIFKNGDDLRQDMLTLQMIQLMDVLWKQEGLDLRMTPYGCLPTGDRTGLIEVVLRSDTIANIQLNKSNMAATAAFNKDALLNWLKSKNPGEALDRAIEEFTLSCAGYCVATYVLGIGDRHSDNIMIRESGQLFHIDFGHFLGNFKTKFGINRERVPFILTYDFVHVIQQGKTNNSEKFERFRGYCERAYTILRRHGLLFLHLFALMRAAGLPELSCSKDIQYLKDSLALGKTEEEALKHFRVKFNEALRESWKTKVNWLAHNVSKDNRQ

[2] = target: Phosphatidylinositol 4,5-bisphosphate 3-kinase catalytic subunit beta isoform (Homo sapiens, UniProt P42338); assay: Inhibition of recombinant human PI3Kbeta using l-a-phosphatidylinositol sodium salt and l-a-phosphatidyl-L-serine as substrate incubated for 60 mins in presence of ATP by ADP-glo kinase assay
[3] = target: Phosphatidylinositol 4,5-bisphosphate 3-kinase catalytic subunit alpha isoform (Homo sapiens, UniProt P42336); assay: Inhibition of recombinant human PI3Kalpha using l-a-phosphatidylinositol sodium salt and l-a-phosphatidyl-L-serine as substrate incubated for 60 mins in presence of ATP by ADP-glo kinase assay
[4] = target: Phosphatidylinositol 4,5-bisphosphate 3-kinase catalytic subunit gamma isoform (Homo sapiens, UniProt P48736); assay: Inhibition of recombinant human PI3Kgamma using l-a-phosphatidylinositol sodium salt and l-a-phosphatidyl-L-serine as substrate incubated for 60 mins in presence of ATP by ADP-glo kinase assay
[5] = Kinetic solubility of compound in PBS at pH 7.4 by HPLC analysis; assay type: physicochemical; settings: for Kinetic_solubility: buffer; for solubility kinetic: PBS, read-out: Kinetic_solubility
[6] = system: THP-1; settings: Homo sapiens, time 70.0 min
[7] = Microsomal stability in rat liver microsomes assessed as clearance at 0.5 uM incubated for 30 mins; assay type: ADME, Microsome; settings: read-out: CLH
[8] = Protein binding in rat lung by rapidfire high-throughput MS analysis; assay type: ADME, tissue-based; settings: read-out: PB (converted)
[9] = Protein binding in human plasma by rapidfire high-throughput MS analysis; assay type: ADME, cell-free; settings: read-out: PPB (converted)
[10] = Metabolic stability in rat lung S9 fraction assessed as half life measured upto 120 mins in presence of NADPH by LC-MS/MS analysis; assay type: ADME, subcellular
[11] = Metabolic stability in human lung S9 fraction assessed as half life measured upto 120 mins in presence of NADPH by LC-MS/MS analysis; assay type: ADME, subcellular
[12] = Metabolic stability in human hepatocytes assessed as clearance measured per 10^6 cells at 0.5 uM incubated for 180 mins; assay type: ADME, cell-based, Hepatocyte; settings: read-out: CLH
[13] = Metabolic stability in rat hepatocytes assessed as clearance measured per 10^6 cells at 0.5 uM incubated for 180 mins; assay type: ADME, cell-based, Hepatocyte; settings: read-out: CLH
[14] = system: HepG2; assay: Cytotoxicity against human HepG2 cells assessed as reduction in cell viability at 3 to 30 uM incubated for 48 hrs by celltiter-glo assay; assay type: functional, cell-based; settings: dose 3-30 µM
[15] = Protein binding in rat plasma by rapidfire high-throughput MS analysis; assay type: ADME, cell-free; settings: read-out: PPB (converted)
[16] = Inhibition of PI3Kdelta/AKT pathway in M-CSF stimulated human THP-1 cells assessed as decrease in AKT phosphorylation preincubated for 60 mins followed by M-CSF stimulation and measured after 10 mins by HTRF analysis; settings: THP-1, read-out: pIC50 (converted)
[17] = Microsomal stability in human liver microsomes assessed as clearance at 0.5 uM incubated for 30 mins; assay type: ADME, Microsome; settings: read-out: CLH
[18] = Apparent permeability across basolateral side to apical side in human Caco-2 cells by […] assay; assay type: ADME, cell-based
[19] = system: HepG2; assay: Cytotoxicity against human HepG2 cells assessed as reduction in cell viability at 10 to 30 uM incubated for 48 hrs by celltiter-glo assay; assay type: functional, cell-based; settings: dose 10-30 µM

Phosphatidylinositol 4,5-bisphosphate 3-kinase catalytic subunit beta isoform, sequence (P42338 whole entry, canonical isoform): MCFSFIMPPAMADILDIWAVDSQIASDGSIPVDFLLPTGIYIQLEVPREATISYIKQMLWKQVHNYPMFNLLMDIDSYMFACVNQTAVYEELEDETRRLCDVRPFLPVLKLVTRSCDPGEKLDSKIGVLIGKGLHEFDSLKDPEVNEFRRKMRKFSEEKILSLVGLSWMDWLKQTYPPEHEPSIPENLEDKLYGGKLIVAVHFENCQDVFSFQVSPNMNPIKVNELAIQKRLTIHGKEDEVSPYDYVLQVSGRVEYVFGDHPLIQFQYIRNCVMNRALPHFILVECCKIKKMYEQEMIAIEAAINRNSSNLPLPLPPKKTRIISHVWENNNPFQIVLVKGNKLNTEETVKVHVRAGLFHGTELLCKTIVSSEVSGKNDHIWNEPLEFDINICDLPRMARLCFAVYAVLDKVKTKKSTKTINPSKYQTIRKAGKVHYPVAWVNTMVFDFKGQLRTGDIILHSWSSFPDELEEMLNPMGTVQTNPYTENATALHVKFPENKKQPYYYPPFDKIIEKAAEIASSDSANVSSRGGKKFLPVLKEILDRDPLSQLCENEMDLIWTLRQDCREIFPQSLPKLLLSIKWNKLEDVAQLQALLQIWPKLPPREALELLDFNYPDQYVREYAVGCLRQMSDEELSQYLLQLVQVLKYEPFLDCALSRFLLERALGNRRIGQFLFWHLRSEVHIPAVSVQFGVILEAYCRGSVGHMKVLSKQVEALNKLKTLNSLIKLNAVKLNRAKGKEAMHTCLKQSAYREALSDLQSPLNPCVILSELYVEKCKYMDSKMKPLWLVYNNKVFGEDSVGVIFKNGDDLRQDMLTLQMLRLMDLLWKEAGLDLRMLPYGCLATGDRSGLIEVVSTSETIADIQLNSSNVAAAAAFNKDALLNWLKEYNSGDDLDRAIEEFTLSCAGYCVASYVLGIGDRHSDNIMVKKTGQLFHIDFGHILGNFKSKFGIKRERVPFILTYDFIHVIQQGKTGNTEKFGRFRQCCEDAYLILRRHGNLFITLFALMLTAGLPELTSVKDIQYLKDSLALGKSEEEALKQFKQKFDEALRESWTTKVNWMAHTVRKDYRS
Phosphatidylinositol 4,5-bisphosphate 3-kinase catalytic subunit gamma isoform, sequence (P48736 whole entry, canonical isoform): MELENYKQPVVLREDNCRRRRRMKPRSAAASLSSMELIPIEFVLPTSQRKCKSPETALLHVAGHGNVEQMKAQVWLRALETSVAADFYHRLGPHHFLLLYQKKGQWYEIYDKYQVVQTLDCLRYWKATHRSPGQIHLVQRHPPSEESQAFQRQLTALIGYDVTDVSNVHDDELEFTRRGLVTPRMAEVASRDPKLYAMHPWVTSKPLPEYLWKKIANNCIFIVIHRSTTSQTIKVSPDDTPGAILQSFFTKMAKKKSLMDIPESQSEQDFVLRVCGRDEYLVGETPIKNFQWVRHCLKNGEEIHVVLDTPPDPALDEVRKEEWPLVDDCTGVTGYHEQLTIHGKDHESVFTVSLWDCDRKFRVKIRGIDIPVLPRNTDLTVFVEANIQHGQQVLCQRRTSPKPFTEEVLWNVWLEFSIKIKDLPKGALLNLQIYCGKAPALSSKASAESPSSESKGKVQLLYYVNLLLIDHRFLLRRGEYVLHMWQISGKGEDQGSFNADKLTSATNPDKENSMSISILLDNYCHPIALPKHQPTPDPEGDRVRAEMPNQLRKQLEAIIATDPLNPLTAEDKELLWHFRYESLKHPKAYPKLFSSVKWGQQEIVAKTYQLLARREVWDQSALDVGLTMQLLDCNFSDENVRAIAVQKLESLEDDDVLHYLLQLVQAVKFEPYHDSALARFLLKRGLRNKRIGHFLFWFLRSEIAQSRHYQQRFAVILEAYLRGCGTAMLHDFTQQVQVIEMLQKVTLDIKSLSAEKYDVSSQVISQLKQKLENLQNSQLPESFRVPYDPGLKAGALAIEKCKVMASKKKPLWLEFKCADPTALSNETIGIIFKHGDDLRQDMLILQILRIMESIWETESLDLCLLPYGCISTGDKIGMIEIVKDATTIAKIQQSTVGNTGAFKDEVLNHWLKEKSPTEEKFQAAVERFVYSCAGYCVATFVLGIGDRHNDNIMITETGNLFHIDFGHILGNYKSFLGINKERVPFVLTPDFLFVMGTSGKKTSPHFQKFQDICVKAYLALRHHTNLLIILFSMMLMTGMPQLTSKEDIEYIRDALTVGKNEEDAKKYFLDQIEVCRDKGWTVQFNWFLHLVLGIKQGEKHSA
Phosphatidylinositol 4,5-bisphosphate 3-kinase catalytic subunit alpha isoform, sequence (P42336 whole entry, canonical isoform): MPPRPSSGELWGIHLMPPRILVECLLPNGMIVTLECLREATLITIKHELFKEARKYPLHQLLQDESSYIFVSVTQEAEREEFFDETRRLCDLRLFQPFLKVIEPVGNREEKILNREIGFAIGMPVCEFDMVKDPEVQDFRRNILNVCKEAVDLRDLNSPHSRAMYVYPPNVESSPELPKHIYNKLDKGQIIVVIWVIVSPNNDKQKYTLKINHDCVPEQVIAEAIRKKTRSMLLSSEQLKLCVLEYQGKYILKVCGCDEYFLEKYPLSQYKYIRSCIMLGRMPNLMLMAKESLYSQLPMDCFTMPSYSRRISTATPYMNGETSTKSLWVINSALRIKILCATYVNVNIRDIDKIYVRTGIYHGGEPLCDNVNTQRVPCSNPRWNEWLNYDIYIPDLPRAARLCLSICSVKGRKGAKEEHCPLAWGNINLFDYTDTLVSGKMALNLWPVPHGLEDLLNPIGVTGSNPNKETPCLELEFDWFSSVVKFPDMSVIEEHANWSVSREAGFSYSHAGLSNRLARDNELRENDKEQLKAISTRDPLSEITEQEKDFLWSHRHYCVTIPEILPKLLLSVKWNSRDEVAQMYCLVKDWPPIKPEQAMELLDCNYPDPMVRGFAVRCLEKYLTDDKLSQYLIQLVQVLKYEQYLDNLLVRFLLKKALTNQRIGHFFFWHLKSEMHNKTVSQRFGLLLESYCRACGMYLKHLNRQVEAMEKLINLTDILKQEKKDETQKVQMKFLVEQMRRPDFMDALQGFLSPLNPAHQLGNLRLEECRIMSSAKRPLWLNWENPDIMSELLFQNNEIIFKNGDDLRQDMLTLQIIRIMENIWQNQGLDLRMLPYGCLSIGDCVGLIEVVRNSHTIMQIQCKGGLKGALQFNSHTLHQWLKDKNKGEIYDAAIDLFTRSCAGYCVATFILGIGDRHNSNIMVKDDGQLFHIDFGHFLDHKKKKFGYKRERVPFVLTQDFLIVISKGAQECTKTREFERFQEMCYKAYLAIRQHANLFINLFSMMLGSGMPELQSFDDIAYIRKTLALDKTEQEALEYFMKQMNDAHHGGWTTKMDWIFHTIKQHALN

| SMILES | Ki [1] | Ki [2] | Ki [3] | Ki [4] | solubility kinetic [5] | other results |
| --- | --- | --- | --- | --- | --- | --- |
| NC(=O)c1nc(-c2cccc(O)c2)nc2c1[nH]c(=O)n2CC1CCS(=O)(=O)C1 (stereo not given) | > 20000 nM | 631 nM | 100 nM | 1260 nM | – | – |
| NC(=O)c1nc(-c2cccc3[nH]ncc23)nc2c1[nH]c(=O)n2CCc1ccc(Cl)c(Cl)c1 | 126 nM | – | – | 1580 nM | – | – |
| NC(=O)c1nc(-c2cccc(O)c2)nc2c1[nH]c(=O)n2CC1CCOC1 (stereo not given) | 39.8 nM | 316 nM | 39.8 nM | 251 nM | – | – |
| NC(=O)c1nc(-c2cccc(O)c2)nc2c1[nH]c(=O)n2C1CC1c1ccccc1 (stereo not given) | 63.1 nM | 158 nM | 158 nM | 158 nM | – | Kinetic_solubility [5]: Not Active; pIC50 [6]: inactive |
| CC(Cc1ccc(Cl)c(Cl)c1)n1c(=O)[nH]c2c(C(N)=O)nc(-c3cccc(O)c3)nc21 (stereo not given) | 3.16 nM | 6.31 nM | 200 nM | 398 nM | 414 µM (≈ 190 µg/mL) | microsomal CLint at 0.5 µM [7]: 50 µL/min/mg; fraction unbound [8]: < 0.01; fraction unbound [9]: < 0.01; half-life [10]: > 8.33 h; half-life [11]: > 8.33 h; hepatocyte CLint at 0.5 µM [12]: 79 µL/min/1e6 cells; hepatocyte CLint at 0.5 µM [13]: 120 µL/min/1e6 cells; Activity [14]: inactive; fraction unbound [15]: < 0.01; IC50 [16]: 100 nM; microsomal CLint at 0.5 µM [17]: 19 µL/min/mg |
| NC(=O)c1nc(-c2cccc(O)c2)nc2c1[nH]c(=O)n2-c1ccc(F)cc1 | – | – | 79.4 nM | – | – | – |
| NC(=O)c1nc(-c2cccc(O)c2)nc2c1[nH]c(=O)n2CCc1cccs1 | – | – | – | – | 405 µM (≈ 154 µg/mL) | – |
| NC(=O)c1nc(-c2cccc(O)c2)nc2c1[nH]c(=O)n2CCc1ccc(Cl)c(Cl)c1 | – | – | – | – | 62 µM (≈ 27.5 µg/mL) | – |
| CN(C)Cc1cccc(-c2nc(C(N)=O)c3[nH]c(=O)n(CCc4ccc(Cl)c(Cl)c4)c3n2)c1 | ≥ 20000 nM | ≥ 20000 nM | ≥ 20000 nM | ≥ 20000 nM | – | – |
| CC[C@H](Nc1ncnc2[nH]cnc12)c1nc2cccc(F)c2c(=O)n1-c1ccccc1 [IDELALISIB] | – | – | – | – | – | fraction unbound [8]: 0.139; fraction unbound [9]: 0.031; Papp B→A [18]: 23.4 ×10⁻⁶ cm/s; Activity [19]: Active; fraction unbound [15]: 0.148; IC50 [16]: 31.6 nM |
| Cc1ccc(O)cc1-c1nc(C(N)=O)c2[nH]c(=O)n(CCc3ccc(Cl)c(Cl)c3)c2n1 | – | – | – | – | 498 µM (≈ 228 µg/mL) | – |
| NC(=O)c1nc(-c2cccc3[nH]ccc23)nc2c1[nH]c(=O)n2CCc1ccc(Cl)c(Cl)c1 | – | – | ≥ 20000 nM | – | – | – |
| CC(C)c1ccc(CCn2c(=O)[nH]c3c(C(N)=O)nc(-c4cccc(O)c4)nc32)cc1 | – | – | – | – | – | Kinetic_solubility [5]: Not Active |
| NC(=O)c1nc(-c2cccc(O)c2)nc2c1[nH]c(=O)n2C1CCN(Cc2ccccc2)C1 (stereo not given) | 5.01 nM | 20 nM | 126 nM | 316 nM | 178 µM (≈ 76.6 µg/mL) | microsomal CLint at 0.5 µM [7]: 133 µL/min/mg; fraction unbound [8]: 0.021; fraction unbound [9]: 0.032; half-life [10]: > 8.33 h; Papp B→A [18]: 0.2 ×10⁻⁶ cm/s; half-life [11]: 2.36 h; hepatocyte CLint at 0.5 µM [12]: 55 µL/min/1e6 cells; hepatocyte CLint at 0.5 µM [13]: 163 µL/min/1e6 cells; Activity [14]: inactive; fraction unbound [15]: 0.033; IC50 [16]: 316 nM; microsomal CLint at 0.5 µM [17]: 70 µL/min/mg |
| NC(=O)c1nc(-c2cccc(O)c2)nc2c1[nH]c(=O)n2CCc1ccc2c(c1)OCO2 | – | – | – | – | – | Kinetic_solubility [5]: Not Active |
| NC(=O)c1nc(-c2cccc(O)c2)nc2c1[nH]c(=O)n2-c1ccc(N2CCOCC2)cc1 | 50.1 nM | 158 nM | 39.8 nM | 126 nM | – | – |

Source: ChEMBL document CHEMBL5325439, “Application of an "inhalation by design" approach to the identification and in-vitro evaluation of novel purine based PI3Kδ inhibitors” (Eur J Med Chem, 2023)
